Like-named read-outs stand apart in the source and are kept apart here.
Key:
[1] = target: T1, human 5-hydroxytryptamine-2C (h5-HT2C) receptor (Homo sapiens, UniProt P28335); assay: [125I]DOI binding to membranes of CHO cells expressing the human 5-HT2C receptor; conditions: [125I]DOI radioligand, CHO cell membranes, room temperature 60 min
T1 construct: expressed in transfected cells; host or cells: CHO (Chinese Hamster Ovary) cells; membranes
T1 sequence (P28335 33-458): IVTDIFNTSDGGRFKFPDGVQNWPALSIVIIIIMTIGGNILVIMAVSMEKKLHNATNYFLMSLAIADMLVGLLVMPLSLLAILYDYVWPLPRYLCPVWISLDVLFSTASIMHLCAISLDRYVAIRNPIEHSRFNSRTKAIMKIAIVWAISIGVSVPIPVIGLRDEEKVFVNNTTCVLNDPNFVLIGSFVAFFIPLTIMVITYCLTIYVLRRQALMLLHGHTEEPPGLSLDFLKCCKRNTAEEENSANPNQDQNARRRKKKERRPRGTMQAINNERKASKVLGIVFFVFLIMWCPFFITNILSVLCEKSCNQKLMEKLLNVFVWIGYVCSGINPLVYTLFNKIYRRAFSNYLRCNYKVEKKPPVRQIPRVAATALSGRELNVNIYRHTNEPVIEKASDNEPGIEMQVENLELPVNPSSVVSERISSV

human 5-HT2C receptor = target: T2, human 5-HT2C receptor (Homo sapiens, UniProt P28335); assay: 5-HT2C receptor-stimulated calcium mobilization (FLIPR) in CHO cells; type: cell-based; conditions: for Emax: CHO; for EC50: calcium mobilization, CHO cells stably expressing human 5-HT2C;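 for all read-outs here: Fluo-3-AM fluorescence read on FLIPR every 1 s, agonist added after 10 baseline reads, response taken as peak minus lowest raw fluorescence count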
T2 sequence (P28335 33-458): T1 sequence (P28335 33-458)

[2] = percentage of the response observed with a maximally effective concentration of 5-HT, read-out: 5-HT2C Function Emax (%)
[3] = read-out: 5-HT2C Function Emax (%), percentage of the response observed with a maximally effective concentration of 5-HT
[4] = percentage of the response observed with a maximally effective concentration of 5-HT

Structure (SMILES) | Ki ([1]; read-out: 5-HT2C Affinity Ki) | Emax (human 5-HT2C receptor; [2]) | EC50 (human 5-HT2C receptor; read-out: 5-HT2C Function EC50) | Emax (human 5-HT2C receptor; [3]) | 5-HT2C Function Emax (%) (human 5-HT2C receptor; [4]) | Ki ([1]; 5-HT2C Affinity Ki (nM)) | EC50 (human 5-HT2C receptor; 5-HT2C Function EC50 (nM))
COc1cccc(-c2cccc3c2OC(CN)C3)c1OC (single isomer, unassigned; (-)) [Example 156] | 4.7 nM | 90% | 6 nM |  |  |  | 
Cc1cc2c(c(-c3ccc(Cl)cc3)c1)OC(CN)C2 (racemic) [Example 292, (±)-{[7-(4-chlorophenyl)-5-methyl-2,3-dihydro-1-benzofuran-2-yl]methyl}amine] | 4.9 nM | 100% | 66 nM |  |  |  | 
NCC1Cc2cccc(-c3ccc(C(F)(F)F)cc3)c2O1 (racemic) [Example 82, (±)-1 {7-[4-(trifluoromethyl)phenyl]-2,3-dihydro-1-benzofuran-2-yl}methanamine] | 15 nM | 95% | 275 nM |  |  |  | 
CNCC1Cc2cc(F)cc(-c3c(Cl)cccc3Cl)c2O1 (racemic) [Example 454, (±)-{[7-(2,6-dichlorophenyl)-5-fluoro-2,3-dihydro-1-benzofuran-2-yl]methyl}methylamine] | 0.26 nM |  | 0.39 nM | 90% |  |  | 
NCC1Cc2cc(Cl)cc(-c3ccc(F)c(F)c3)c2O1 (racemic) [Example 258, (±)-{[5-chloro-7-(3,4-difluorophenyl)-2,3-dihydro-1-benzofuran-2-yl]methyl}amine] | 42 nM | 80% | 734 nM |  |  |  | 
Cc1cccc(C)c1-c1cccc2c1OC(CN)C2 (single isomer, unassigned; (-)) [Example 57, (−)-1-[7-(2,6-dimethylphenyl)-2,3-dihydro-1-benzofuran-2-yl]methanamine] | 1 nM | 80% | 12 nM |  |  |  | 
CNCC1Cc2cc(OC)cc(-c3cc(F)ccc3F)c2O1 (racemic) [Example 498, (±)-{[7-(2,5-difluorophenyl)-5-methoxy-2,3-dihydro-1-benzofuran-2-yl]methyl}methylamine] | 35 nM | 70% | 326 nM |  |  |  | 
NCC1Cc2cccc(-c3c(Cl)cccc3Cl)c2O1 (single isomer, unassigned; (-)) [Example 141, (−)-1-[7-(2,6-dichlorophenyl)-2,3-dihydro-1-benzofuran-2-yl]methanamine] | 0.07 nM | 90% | 0.03 nM |  |  |  | 
Cc1ccc(C)c(-c2cccc3c2OC(CN)C3)c1 (racemic) [Example 161, (±)-{[7-(2,5-dimethylphenyl)-2,3-dihydro-1-benzofuran-2-yl]methyl}amine] | 8 nM | 90% | 32 nM |  |  |  | 
NCC1Cc2cccc(-c3ccccc3)c2O1 (single isomer, unassigned; (-)) [Example 38, (−)-1-(7-phenyl-2,3-dihydro-1-benzofuran-2-yl)methanamine] | 56 nM | 100% | 540 nM |  |  |  | 
CC(C)c1cccc2c1OC(CN)C2 (racemic) [Example 18, (±)-(7-isopropyl-2,3-dihydro-1-benzofuran-2-yl)methylamine] | 5 nM | 100% | 9.6 nM |  |  |  | 
NCC1Cc2cccc(-c3ccc(Cl)cc3Cl)c2O1 (racemic) [Example 83, (±)-1-[7-(2,4-dichlorophenyl)-2,3-dihydro-1-benzofuran-2-yl]methanamine] | 1 nM | 100% | 7.9 nM |  |  |  | 
CNCC1Cc2cc(OC)cc(-c3ccccc3F)c2O1 (racemic) [Example 491, (±)-{[7-(2-fluorophenyl)-5-methoxy-2,3-dihydro-1-benzofuran-2-yl]methyl}methylamine] | 22 nM | 80% | 200 nM |  |  |  | 
NCC1Cc2cc(Cl)cc(-c3cccc(F)c3F)c2O1 (racemic) [Example 244, (±)-{[5-chloro-7-(2,3-difluorophenyl)-2,3-dihydro-1-benzofuran-2-yl]methyl}amine] | 0.74 nM | 90% | 52 nM |  |  |  | 
COc1ccc(-c2cc(F)cc3c2OC(CN)C3)c(OC)c1 (racemic) [Example 219, (±)-{[7-(2,4-dimethoxyphenyl)-5-fluoro-2,3-dihydro-1-benzofuran-2-yl]methyl}amine] | 7 nM | 90% | 79 nM |  |  |  | 
CNCC1Cc2cccc(-c3ccccc3C)c2O1 (single isomer, unassigned; (+)) [Example 408, (+)-N-methyl-1-[7-(2-methylphenyl)-2,3-dihydro-1-benzofuran-2-yl]methanamine] | 0.46 nM |  | 6 nM |  | 90% |  | 
NCC1Cc2cc(Cl)cc(-c3cccc(F)c3F)c2O1 (single isomer, unassigned; (-)) [Example 245, (−)-{[5-chloro-7-(2,3-difluorophenyl)-2,3-dihydro-1-benzofuran-2-yl]methyl}amine] | 2 nM | 100% | 57 nM |  |  |  | 
Cc1cc2c(c(-c3ccc(Cl)cc3Cl)c1)OC(CN)C2 (single isomer, unassigned; (+)) [Example 299, (+)-{[7-(2,4-dichlorophenyl)-5-methyl-2,3-dihydro-1-benzofuran-2-yl]methyl}amine] | 0.19 nM |  | 0.1 nM |  | 100% |  | 
NCC1Cc2cccc(-c3ccc(F)cc3F)c2O1 (single isomer, unassigned; (-)) [Example 148, (−)-1-[7-(2,4-difluorophenyl)-2,3-dihydro-1-benzofuran-2-yl]methanamine] | 12 nM |  | 290 nM |  | 70% |  | 
CC(C)(C)c1cccc2c1OC(CN)C2 (single isomer, unassigned; (+)) [Example 26, (+)-1-(7-tert-butyl-2,3-dihydro-1-benzofuran-2-yl)methanamine] | 71 nM |  | 79 nM |  | 100% |  | 
COc1cccc(-c2cc(C)cc3c2OC(CN)C3)c1OC (racemic) [Example 294, (±)-{[7-(2,3-dimethoxyphenyl)-5-methyl-2,3-dihydro-1-benzofuran-2-yl]methyl}amine] | 0.11 nM | 90% | 8 nM |  |  |  | 
Cc1ccccc1-c1cc(F)c(F)c2c1OC(CN)C2 (racemic) [Example 110, (±)-1-[4,5-difluoro-7-(2-methylphenyl)-2,3-dihydro-1-benzofuran-2-yl]methanamine] | 9 nM | 70% | 1000 nM |  |  |  | 
COc1cc2c(c(-c3ccccc3Cl)c1)OC(CN)C2 (racemic) [Example 357, (±)-{[7-(2-chlorophenyl)-5-methoxy-2,3-dihydro-1-benzofuran-2-yl]methyl}amine] |  |  |  | 100% |  | 18 nM | 2 nM
NCC1Cc2cccc(-c3ccccc3C(F)(F)F)c2O1 (single isomer, unassigned; (+)) [Example 55, (+)-1-{7-[2-(trifluoromethyl)phenyl]-2,3-dihydro-1-benzofuran-2-yl}methanamine] | 3 nM |  | 48 nM |  | 70% |  | 
NCC1Cc2cc(Cl)cc(-c3ccccc3F)c2O1 (racemic) [Example 241, (±)-{[5-chloro-7-(2-fluorophenyl)-2,3-dihydro-1-benzofuran-2-yl]methyl}amine] | 0.3 nM | 90% | 29 nM |  |  |  | 
CNCC1Cc2cc(OC)cc(-c3cccc(F)c3F)c2O1 (racemic) [Example 494, (±)-{[7-(2,3-difluorophenyl)-5-methoxy-2,3-dihydro-1-benzofuran-2-yl]methyl}methylamine] | 35 nM | 60% | 475 nM |  |  |  | 
CNCC1Cc2cc(C)cc(-c3cccc(Cl)c3)c2O1 (racemic) [Example 479, (±)-{[7-(3-chlorophenyl)-5-methyl-2,3-dihydro-1-benzofuran-2-yl]methyl}methylamine] | 0.5 nM | 80% | 71 nM |  |  |  | 

Source: patent US7435837B2, “Dihydrobenzofuranyl alkanamine derivatives and methods for using same” (Wyeth, priority 2003, dated 2008)
